Test results published in ChEMBL document CHEMBL5625167, “In vitro bioevaluation and docking study of dihydrosphingosine and ethambutol analogues against sensitive and multi-drug resistant Mycobacterium tuberculosis” (Eur J Med Chem, 2023).
≈ marks a conversion by molar mass, not a printed value.

How the values were obtained:
[1] = test system: Mycobacterium tuberculosis; assay: Antimycobacterial activity against isoniazid, rifampicin, ethambutol and pyrazinamide sensitive Mycobacterium tuberculosis H37Rv ATCC 25618 assessed as inhibition of bacterial growth incubated for 7 days by resazurin dye based colorimetric method analysis; format: functional; details: H37Rv ATCC 25618, 168 h, time 7 day
[2] = test system: Mycolicibacterium smegmatis; assay: Antimycobacterial activity against Mycobacterium smegmatis ATCC607 incubated for 24 hrs by resazurin dye based broth microdilution method; format: functional
[3] = Cytotoxicity against mouse J774.A1 cells assessed as reduction in cell population incubated for 48 hrs by MTT assay; format: toxicity, cell-based
[4] = Cytotoxicity against human HepG2 cells assessed as reduction in cell population incubated for 48 hrs by MTT assay; format: toxicity, cell-based
[5] = Cytotoxicity against African green monkey Vero cells assessed as reduction in cell population incubated for 48 hrs by MTT assay; format: toxicity, cell-based; details: chlorocebus sabaeus
Klebsiella pneumoniae = assay: Antibacterial activity against Klebsiella pneumoniae ATCC 13883 incubated for 18 hrs by resazurin dye based broth microdilution method; format: functional
Staphylococcus aureus = assay: Antibacterial activity against Staphylococcus aureus ATCC 25923 incubated for 18 hrs by resazurin dye based broth microdilution method; format: functional
[6] = test system: Mycobacterium tuberculosis; assay: Potency index, ratio of ethambutol MIC to test compound MIC for antimycobacterial activity against isoniazid, rifampicin, ethambutol and pyrazinamide sensitive Mycobacterium tuberculosis H37Rv ATCC 25618 assessed as inhibition of bacterial growth incubated for 7 days by resazurin dye based colorimetric method analysis; format: functional; details: time 7 day

| SMILES | MIC [1] [µM] | MIC [2] [µM] | CC50 at 48 h [3] [µM] | CC50 at 48 h [4] [µM] | CC50 at 48 h [5] [µM] | MIC (Klebsiella pneumoniae) [µM] | MIC (Staphylococcus aureus) [µM] | Ratio [6] |
| --- | --- | --- | --- | --- | --- | --- | --- | --- |
| CCCCCCCCCCCCCCCC(CNCCCCCC)NC(=O)OC(C)(C)C (stereo not drawn) | 8 (≈ 3.64 µg/mL) | 128 (≈ 58.2 µg/mL) | 20.8 | 86.8 | 22.9 | > 512 | 256 (≈ 116 µg/mL) | 45 |
| CCCCc1ccc(CCCCCCCCCC(CO)NC(=O)OC(C)(C)C)cc1 (stereo not drawn) | 32 (≈ 13.4 µg/mL) | – | 15.8 | – | 31 | – | – | 11 |
| CCCCCCCCCCCCCCCCCC(N)COCc1ccccc1 (stereo not drawn) | 64 (≈ 24.9 µg/mL) | > 512 | 93.3 | – | 138 | > 512 | > 512 | 6 |
| Cc1onc(-c2ccccc2)c1C(=O)N[C@@H]1C(=O)N2[C@@H]1SC(C)(C)[C@@H]2C(=O)O [OXACILLIN] | – | – | – | – | – | – | 0.25 (≈ 0.1 µg/mL) | – |
| CCCCCCCCCCCC(CO)NCCCC (stereo not drawn) | 32 (≈ 8.69 µg/mL) | – | 21.4 | – | 26 | – | – | 11 |
| CCCCCCCCCCCCCCCC(N)CN (stereo not drawn) | > 64 | 512 (≈ 138 µg/mL) | 217 | – | 192 | > 512 | > 512 | <5.6 |
| CCCCCCCCCCCCCCCC(CO)N(CC)CC (stereo not drawn) | 4 (≈ 1.31 µg/mL) | – | 23.3 | – | 25.1 | – | – | 90 |
| CC(C)(O/N=C(\C(=O)N[C@@H]1C(=O)N2C(C(=O)[O-])=C(C[n+]3ccccc3)CS[C@H]12)c1csc(N)n1)C(=O)O [CEFTAZIDIME] | – | – | – | – | – | 0.5 (≈ 0.273 µg/mL) | – | – |
| CCCCCCCCCCCCCCCC(CNCCCC)NC(=O)OC(C)(C)C (stereo not drawn) | 8 (≈ 3.41 µg/mL) | 32 (≈ 13.7 µg/mL) | 21.2 | 136 | 20.3 | > 512 | 16 (≈ 6.83 µg/mL) | 45 |
| CCCCCCCCCCCCCCCCCCCC(CNCC)NC(=O)OC(C)(C)C (stereo not drawn) | 4 (≈ 1.82 µg/mL) | 16 (≈ 7.28 µg/mL) | 4.7 | 158 | 33.7 | > 512 | 256 (≈ 116 µg/mL) | 90 |
| CCCCCCCCCCCC(CO)NCC (stereo not drawn) | > 64 | – | 10.5 | – | 37.3 | – | – | >5.6 |
| CCCCc1ccc(CCCCCCCC(N)CO)cc1 (stereo not drawn) | 4 (≈ 1.17 µg/mL) | – | 10.6 | 25.4 | 21.2 | – | – | 90 |
| CCCCCCCCCCCC(CO)N(CC)CC (stereo not drawn) | 64 (≈ 17.4 µg/mL) | – | 17.6 | – | 36.2 | – | – | 6 |
| CCCCCCCCCCCCCCCC(COCc1ccccc1)NCCCCCC (stereo not drawn) | 64 (≈ 28.5 µg/mL) | – | 54.6 | – | 54 | – | – | 6 |
| CCCCCCCCCCCCCCCCCC(CN)NC(=O)OC(C)(C)C (stereo not drawn) | 16 (≈ 6.38 µg/mL) | 8 (≈ 3.19 µg/mL) | 30.5 | 115 | 17.7 | > 512 | 16 (≈ 6.38 µg/mL) | 23 |
| CCCCCCCCCCCCCCCC(CO)NCCCCCC (stereo not drawn) | 64 (≈ 22.8 µg/mL) | 256 (≈ 91 µg/mL) | 23.8 | – | 113 | > 512 | 128 (≈ 45.5 µg/mL) | 6 |
| CCCCCCCCCCCCCCCCCC(CO)NCCCC (stereo not drawn) | 32 (≈ 11.4 µg/mL) | 512 (≈ 182 µg/mL) | 31.1 | – | 148 | > 512 | 512 (≈ 182 µg/mL) | 11 |
| CCCCCCCCCCCCCCCCCCCC(N)COCc1ccccc1 (stereo not drawn) | 32 (≈ 13.4 µg/mL) | 256 (≈ 107 µg/mL) | 23 | – | 126 | > 512 | > 512 | 11 |

| SMILES | MIC [1] [µM] | MIC [2] [µM] | CC50 at 48 h [3] [µM] | CC50 at 48 h [4] [µM] | CC50 at 48 h [5] [µM] | MIC (Klebsiella pneumoniae) [µM] | MIC (Staphylococcus aureus) [µM] | Ratio [6] |
| --- | --- | --- | --- | --- | --- | --- | --- | --- |
| CCCCCCCCCCCCCCCC(CN)NC(=O)OC(C)(C)C (stereo not drawn) | 17.6 (≈ 6.52 µg/mL) | – | 5.18 | – | 21.9 | – | – | 20 |
| CCCCc1ccc(CCCCCCCC(CO)NC(=O)OC(C)(C)C)cc1 (stereo not drawn) | 32 (≈ 12.5 µg/mL) | – | 12.9 | – | 28.3 | – | – | 11 |
| CCCCCCCCCCCC(CNCC)NC(=O)OC(C)(C)C (stereo not drawn) | 64 (≈ 21.9 µg/mL) | – | 20.9 | – | 32.3 | – | – | 6 |
| CCCCCCCCCCCCCCCCCC(COCc1ccccc1)NCCCCCC (stereo not drawn) | 64 (≈ 30.3 µg/mL) | > 512 | 118 | – | 120 | > 512 | > 512 | 6 |
| CCCCCCCCCCCCCCCCCCCC(CN)NC(=O)OC(C)(C)C (stereo not drawn) | 32 (≈ 13.7 µg/mL) | – | 36 | – | 51.4 | – | – | 11 |
| CCCCCCCCCCCCCCCC(CN=[N+]=[N-])NC(=O)OC(C)(C)C (stereo not drawn) | > 64 | > 512 | 104 | – | 63.8 | > 512 | > 512 | <5.6 |
| CCCCCCCCCCCCCCCCCCCC(CO)N(CC)CC (stereo not drawn) | > 64 | > 512 | 102 | – | 117 | > 512 | > 512 | <5.6 |
| CCCCCCCCCCCCCCCCCC(CO)N(CC)CC (stereo not drawn) | > 64 | > 512 | 49.5 | – | 85.5 | > 512 | > 512 | <5.6 |
| CCCCCCCCCCCC(N)CO (stereo not drawn) | 64 (≈ 13.8 µg/mL) | – | 2.35 | – | 40.8 | – | – | 6 |
| CCCCCCCCCCCCCCCC(CO)NCCCC (stereo not drawn) | 64 (≈ 21 µg/mL) | – | 23.7 | – | 73.4 | – | – | 6 |
| CCCCCCCCCCCCCCCC(N)CNCC (stereo not drawn) | 32 (≈ 9.55 µg/mL) | – | 25.6 | – | 40.1 | – | – | 11 |
| CCCCc1ccc(CCCCCC(N)CO)cc1 (stereo not drawn) | 64 (≈ 16.9 µg/mL) | – | 10.7 | – | 27.8 | – | – | 6 |
| CCCCc1ccc(CCCCCCCCCC(N)CO)cc1 (stereo not drawn) | 8 (≈ 2.56 µg/mL) | – | 11.7 | 45.6 | 25.4 | – | – | 45 |
| CCCCCCCCCCCCCCCC(CNCC(=O)OCC)NC(=O)OC(C)(C)C (stereo not drawn) | 32 (≈ 14.6 µg/mL) | – | 27.9 | – | 39 | – | – | 11 |
| CCCCc1ccc(CCCCCC(CO)NC(=O)OC(C)(C)C)cc1 (stereo not drawn) | 64 (≈ 23.3 µg/mL) | – | 14.2 | – | 51.5 | – | – | 6 |
| CCCCCCCCCCCCCCCC(CO)N(CCCC)CCCC (stereo not drawn) | 8 (≈ 3.07 µg/mL) | > 512 | 22.4 | 82.5 | 47.2 | – | – | 45 |
| CCCCCCCCCCCCCCCC(CO)NCC (stereo not drawn) | 16 (≈ 4.79 µg/mL) | – | 22.8 | – | 27.7 | – | – | 23 |
| CCCCCCCCCCCCCCCC(CO)NCCCCCCCCCC (stereo not drawn) | 64 (≈ 26.4 µg/mL) | 128 (≈ 52.7 µg/mL) | 55.3 | – | 104 | > 512 | 512 (≈ 211 µg/mL) | 6 |
